Source: publication PMC12503906, “Novel Pyrazolo [1,5‐a]−1,3,5‐Triazine Derivatives as CDK7 Inhibitors: Synthesis and Biological Insights in Pancreatic Ductal Adenocarcinoma Models” (Chemmedchem, 2025)

Assays:
Type in all cases: cell-based
[1] = tested on: Bax/Bcl‐2; test: Bax/Bcl‐2 ratio by RT‐PCR, PDAC3 cells
Procedure: In order to understand modulation of downstream genes of CDK7, gene expression analysis by qPCR was performed in all cell lines. Cells (5 × 10^5/well) were seeded in 6‐well plates and treated with the compounds 1b and 1g at 1× and 4 × IC50 concentrations. Cell lysates were collected 24 h post‐treatment using 300 µL of TRIzol Reagent (Ambion, 15,596,018) per well. Total RNA was extracted by mixing 60 µL of chloroform to the samples, incubating for 3 min and centrifuging at 12,000 rcf for 15 min at 4 °C. The upper aqueous phase containing RNA was transferred to a new Eppendorf and mixed with 120 µL of cold isopropanol in order to allow the RNA to precipitate. Samples were incubated at RT for 10 min and were then centrifuged at 12,000 rcf for 10 min at 4 °C. The isopropanol was carefully removed, and the pellet was washed twice with 70% ETOH. Pellets were left to air dry and consequently resuspended in RNAse‐free water. Samples were left agitation on a thermomixer at 55 °C for 10 min at 600 rpm and were then quantified through NanoDrop technology (Thermo Scientific, NanoDrop One/One^c). RNA samples were stored at −80 °C.
In order to perform cDNA synthesis, the First Strand cDNA synthesis kit (Thermo Scientific, K1612) was used. The previously isolated RNA was mixed with 1 µL of oligo dT18 primer into a pcr tube. Nuclease free water was added to reach a final volume of 11 µL. Samples were centrifuged at 1200 rcf for 5 min and were then placed on a thermomixer at 65 °C for a few minutes. A master mix was prepared, including 4 µL of 5× reaction buffer, 1 µL of ribolock RNAse inhibitor, 2 µL of dntp mix (10 mM), and 2 µL of M‐mulv reverse transcriptase for each sample. In total 9 µL of master mix were added to each vial. Samples were centrifuged again and were finally synthesized, following a cycle of 60 min at 37 °C and 5 min at 70 °C. cDNA was now finally synthesized and could be stored at −20 °C. RT‐PCRs reactions were performed using SYBR Green (Bio‐Rad, 1,725,271) (5 µL per sample), primer mix (0.3 µM) (2 µL per sample), and cDNA (10 ng µL^− ^1) (3 µL per sample). […] RT‐PCR assays were carried out in a GeneAmp 5700 Sequence Detection System programmed to hold at 50 °C for 30 min, to hold at 95 °C for 10 min, and to complete 45 cycles of 95 °C for […] and 50 °C for 1 min. The genes that were investigated are shown in Table 5 , with their respective forward and reverse primer sequences.

[2] = tested on: PANC‐1; test: Cell cycle analysis (FACS, PI staining), PANC‐1; details: for percentage of cells in the G2‐M phase: untreated 18.1%; for percentage of cells in the G0‐G1 phase: untreated 40.7%; for percentage of cells in the S phase: untreated 41.3%
Procedure: Modulation of the cell cycle was analyzed via flow cytometry. Cells (5 × 10^5 cells mL^− ^1) were seeded in 6‐well plates and were incubated at 37 °C overnight. Cells were treated with the compounds 1b and 1g at two different concentrations (1 × IC50 and 4 × IC50, according to each cell line) and were again incubated for 24 and 72 h. After treatment, cells were harvested with trypsin and were collected in specific fluorescence‐activated cell sorting (FACS) tubes. Cells were then washed with PBS and centrifuged at 1500 rpm for 5 min, in order to form a pellet. These pellets were fixed in 1 mL of ice‐cold 70% ethanol, added drop by drop during vortex, and placed in the refrigerator at 4 °C. After overnight incubation, the cells were washed twice with PBS, centrifuged (5 min at 1500 rpm), resuspended in 50 µL of RNase (100 µg mL^− ^1), and incubated for 30 min at 37 °C. Finally, 200 µL of propidium iodide solution (PI, 50 µg mL^− ^1) was added, and the cell distribution in the various phases of the cell cycle was analyzed via BD LSRFortessa Cell Analyzer. Data analysis was carried out with FACSdiva software (Becton Dickinson), while cell cycle distribution was determined using FCS express software.

[3] = tested on: PATU‐T spheroids; test: PATU‐T 3D spheroids, resazurin viability; details: three cell densities, 1 × IC50 and 4 × IC50
Procedure: The modulation of the growth of spheroids was utilized as a method to assess the effect of the novel compounds 1b and 1g in a 3D structure. The PATU‐T cell line was employed to make such a structure. Agarose 1.5% is a solid gel at RT; thus, in order to become a liquid solution, it was heated up into a microwave for about 30 s—1 min, depending on when it starts boiling. Once heated up, the bottle containing the agarose was wrapped in aluminum foil, and it was allowed to maintain the temperature and the liquid state of the agarose. Each well of a flat‐bottom 96‐well plate was coated with 70 µL of agarose. Plates were left to cool down and dried for 1 h at RT. Afterward, 7 × 10^3, 1 × 10^4, and 2 × 10^4 cells/well (200 µL) were seeded in order to identify the optimal amount of cell for the spheroid formation. Finally, the plates were centrifuged at 1200 rpm for 6 min and placed in the incubator for 7 days at 37 °C, 5% CO2. After one week, spheroids were imaged at day 0 h with the inverted routine microscope Nikon Eclipse Ts2 and were consequently treated with compounds 1b and 1g at 4 × IC50 and 1 × IC50. In order to assess the effects of the treatment, images were then taken every 3 days, and medium along with treatment was refreshed at the same interval. […] Cells were then collected, counted, and reseeded in 96‐well plates. […] Absorbance was read at 570 nm.

| Structure (SMILES) | Bax/Bcl‐2 ratio PDAC3 ([1]; 1 × IC50, 24 h after treatment) | Bax/Bcl‐2 ratio PDAC3 ([1]; 4 × IC50, 24 h after treatment) | percentage of cells in the G2‐M phase ([2]; PANC‐1, 1 × IC50, 24 h) | percentage of cells in the G0‐G1 phase ([2]; PANC‐1, 1 × IC50, 24 h) | percentage of cells in the S phase ([2]; PANC‐1, 1 × IC50, 24 h) | percentage of cells in the G2‐M phase ([2]; PANC‐1, 4 × IC50, 24 h) | percentage of cells in the G0‐G1 phase ([2]; PANC‐1, 4 × IC50, 24 h) | percentage of cells in the S phase ([2]; PANC‐1, 4 × IC50, 24 h) | cell viability compared to untreated controls (resazurin) [3] |
| --- | --- | --- | --- | --- | --- | --- | --- | --- | --- |
| Nc1ncnc2cc(-c3c[nH]c4ccc(Br)cc34)nn12 [Compound 1b, 7‐(5‐Bromo‐1H‐indol‐3‐yl)pyrazolo[1,5‐a][1,3,5]triazin‐4‐amine] | 0.44 | 0.01 | 12.2% | 55.0% | 32.7% | 10.0% | 62.8% | 28.3% | significantly reduced viability |
| Cn1cc(-c2cc3ncnc(N)n3n2)c2cc(Br)ccc21 [Compound 1g, 7‐(5‐Bromo‐1‐methyl‐1H‐indol‐3‐yl)pyrazolo[1,5‐a][1,3,5]triazin‐4‐amine] | 0.36 | 0.38 | 16.9% | 55.2% | 27.9% | 14.1% | 56.9% | 29.0% | significantly reduced viability |
